Entries after “also recorded” stand apart in the source; their conditions may differ.

We go through two substances from PMC7557804, “The Anti-Microbial Peptide (Lin-SB056-1)2-K Reduces Pro-Inflammatory Cytokine Release through Interaction with Pseudomonas aeruginosa Lipopolysaccharide” (Antibiotics, 2020).

For data set [1], the system named is sepsis in animal models. The following applies: by sequestering soluble LPS; cited from earlier work. The text has this: While the anti-microbial activities of AMPs are becoming increasingly understood, the mechanisms underlying their anti-inflammatory effect still need to be fully elucidated. Nevertheless, the anti-inflammatory mode of action of many peptides has been attributed to their ability to efficiently bind LPS and/or block LPS recognition by effector cells. […] Analogous LPS-ne ...

For data set [2] the following is noted: in vitro; cited from earlier work. The text has this: While the anti-microbial activities of AMPs are becoming increasingly understood, the mechanisms underlying their anti-inflammatory effect still need to be fully elucidated. Nevertheless, the anti-inflammatory mode of action of many peptides has been attributed to their ability to efficiently bind LPS and/or block LPS recognition by effector cells. […] Analogous LPS-ne ... || It is generally thought that the dendrimeric architecture leads to improved biological activity due to a higher local concentration of the active sequence. Possibly, thanks to its conformational plasticity, the dendrimeric organization might maximize target binding (e.g., LPS) through electrostatic interactions, leading to greater biological effects. Nevertheless, we cannot exclude a role of stability on the ability of dendrimeric peptides to establish solid interactions with LPS under specific experimental conditions. For instance, the stronger LPS-binding affinity of (lin-SB056-1 ...

The test system of data set [3] is mammalian cells. The note with it: cited from earlier work. The text has this: (§1) The global issue of anti-microbial resistance coupled with the lack of new treatments for bacterial infections has stimulated interest in the use of AMPs for therapeutic purposes. Due to their unique mechanism(s) of action and wide spectrum of biological activities, AMPs are emerging as a promising alternative to conventional anti-microbial agents for the management of antibiotic-resistant and biofilm-associated infections. Although mainly intended for topical use due to potential toxicity and reduced stability under physiological conditions, many different peptides with anti-micro ...

The test system of data set [4] is P. aeruginosa. The note with it: previous studies; cited from earlier work.
Source text: as §1

Data set [5] in a line: BODIPY TR cadaverine (BC) fluorescent displacement assay, LPS binding. Set-up: species or system P. aeruginosa. The following applies: P. aeruginosa serotype 10 LPS 10 µg/mL, BC 10 µM; 50 mM Tris-HCl, pH 7.4; 25 °C; excitation 580 nm, emission 620 nm; mean of three independent experiments, SD not exceeding 5%. Here is the method: Measurement of the ability of lin-SB056-1 and its dendrimeric derivative to bind P. aeruginosa serotype 10 LPS (Sigma-Aldrich) in vitro was performed by a fluorescent displacement assay using the BODIPY TR cadaverine (BC) probe (5-(((4-(4,4-difluoro-5-(2-thienyl)-4-bora-3a,4a-diaza-s-indacene-3-yl)phenoxy)acetyl)amino)pentylamine, hydrochloride); Thermo Fisher Scientific), as described elsewhere. BC binds to LPS by recognizing the lipid A portion and the probe fluorescence is quenched. When a peptide able to interact with LPS is added, BC is displaced from the complex and its fluorescence increases. LPS binding assays were carried out in 50 mM Tris-HCl buffer, pH 7.4. Aliquots of the peptides at a final concentration of 0.1 μM were successively added to a cuvette containing the LPS/BC complex (10 µg/mL P. aeruginosa LPS and 10 µM BC). Fluorescence measurements were performed with a Perkin-Elmer LS 55B spectrofluorometer (Perkin-Elmer, Waltham, MA, USA) using a thermostated (25 °C) cuvette apparatus (excitation: 580 nm; emission: 620 nm).

Data set [6] relates to THP-1 macrophages. As to the kind of experiment: Cytotoxicity (LDH release) towards THP-1 macrophages. It counts as cell-based, Human. The note with it: LPS-stimulated THP-1 macrophages, 4 h. Here is the method:
(§2) Human non-small-cell lung adenocarcinoma A549 cells (ATCC CCL-185; LGC Standards, Milan, Italy) and human monocytic THP-1 cells (ATCC TIB-202; LGC Standards) were cultured in tissue culture flasks in Dulbecco’s modified essential medium (DMEM) (Euroclone, Milan, Italy) and RPMI 1640 medium (Euroclone), respectively. Both media were supplemented with 2 mM L-glutamine (Euroclone) and 10% heat-inactivated fetal bovine serum (FBS; Euroclone). Confluent monolayers were detached from the culture flask with 0.25% trypsin/1 mM EDTA solution (Euroclone), suspended in complete culture medium and seeded into flat-bottom 96-well plates at a final density of 1 × 10^4 cells/well (A549) and 2 × 10^4 cells/well (THP-1). A549 cells were cultured for 24 h at 37 °C, 5% CO2 in order to allow adhesion and formation of semi-confluent monolayers. THP-1 cells were cultured for 3 days (37 °C, 5% CO2) in the presence of 100 nM TPA (Sigma-Aldrich, St. Louis, MO, USA) to induce their differentiation into macrophage-like cells.
(§3) The cytotoxicity of lin-SB056-1 and (lin-SB056-1)2-K towards A549 and THP-1 cells was evaluated to exclude a possible correlation between reduction in cytokine levels and decrease in cell numbers. To this end, culture supernatants of cells stimulated with LPS in the presence of the peptides were employed to quantify the amount of cytoplasmic LDH released by dead cells. Cells incubated in culture medium alone or in the presence of LPS served as an indication of spontaneous cell death (cell viability controls), while cells treated with a commercial lysis buffer (Pierce LDH cytotoxicity assay kit, Thermo Fisher Scientific) were used as cell death control (100% cell lysis). The enzymatic activity of LDH in cell supernatants was measured using the Pierce LDH cytotoxicity assay kit (Thermo Fisher Scientific) following manufacturer’s instructions. The cytotoxic effect was determined as follows: cytotoxicity (%) = [(LDH activity of A/LDH activity of B) × 100], where A represents peptide-treated or untreated cells (both in the presence and absence of LPS), and B corresponds to the cell lysis control.
(In general: LDH in the medium is a marker of cell lysis.)

In data set [7] the test system is A549 cells. Description: LPS-induced cytokine production by A549 cells (bead-based multiplex immunoassay). It counts as cell-based, Human. The following applies: LPS 800 ng/mL, 4 h, 37 °C, peptide 4.8 to 19.25 μM. Here is the method: as §2
The anti-inflammatory potential of lin-SB056-1 and (lin-SB056-1)2-K was assessed by evaluating their ability to reduce LPS-induced production of pro-inflammatory cytokines by A549 cells and THP-1 macrophages. In order to ensure cytokine production, cell monolayers were stimulated with LPS from P. aeruginosa serotype 10 (purified by phenol extraction; Sigma-Aldrich, Milano, Italy) at a final concentration of 10 ng/mL (THP-1) and 800 ng/mL (A549). LPS concentrations used in the experiments were chosen based on preliminary assays aimed at identifying the minimum dose of the molecule able to stimulate cytokine production after 4 h of exposure. In order to assess the inhibitory activity of peptides on cytokine production, cell monolayers were incubated in complete culture medium in the presence of LPS and different concentrations of lin-SB056-1 and (lin-SB056-1)2-K (4.8 to 19.25 μM) for 4 h (37 °C, 5% CO2). Cells incubated in the presence of LPS alone were used as positive (cytokine production) control. Following incubation, cell culture supernatants were collected, filter sterilized (0.22 µm) and employed for the quantification of cytokines and the assessment of cell viability.
Different pro-inflammatory cytokines (i.e., IL-1β, IL-6, IL-8 and TNF-α) were quantified in cell culture supernatants through a bead-based multiplex immunoassay (LEGENDplex multi-analyte flow assay kit; BioLegend, San Diego, CA, USA) following manufacturer’s instructions. Briefly, 25 μL of cytokine standard or cell supernatant were incubated with 25 μL of anti-cytokine conjugated beads into V-bottom 96-well plates for 2 h. Following incubation, the plates were washed and subsequently incubated with the detection antibody (25 μL/well) for 1 h. A volume of 25 μL of streptavidin-phycoerythrin was added to each well, and the plates were incubated for another 30 min in the dark. Following consecutive washing steps, the beads were resuspended in the LEGENDplex wash buffer and the samples were analyzed by flow cytometry (BD Accuri C6 flow cytometer; BD Biosciences, Mountain View, CA, United States). Data were acquired with the BD Accuri C6 software (BD Biosciences) (300 events per analyte) and analyzed with the LEGENDplex software (BioLegend). Minimum detectable concentration (MDC+2STDEV) for the tested cytokines were as follows: IL-1β, 0.65 + 0.47 pg/mL; IL-6, 0.97 + 1.46 pg/mL; IL-8, 1.90 + 0.65 pg/mL; TNF-α, 0.88 + 0.27 pg/mL.

The subject of data set [8] is A549 cells. As to the kind of experiment: Cytotoxicity (LDH release) towards A549 cells. It is filed as cell-based, Human. The note with it: LPS-stimulated A549, 4 h. Here is the method:
as §2, §3

Data set [9] can be described thus: LAL assay, LPS neutralization. It counts as biochemical, Escherichia coli. The note with it: 2.4 to 19.25 μM peptide; E. coli 011:B4 LPS 2 EU/mL; 30 min, 37 °C. How it is done:
The ability of lin-SB056-1 and (lin-SB056-1)2-K to neutralize the activity of LPS was analyzed using a standardized LAL assay (Pierce LAL chromogenic endotoxin quantitation kit; Thermo Fisher Scientific). Peptides at different concentrations (2.4 to 19.25 μM) were pre-incubated with E. coli 011:B4 LPS (2 Endotoxin Units (EU)/mL; EU = unit of measurement for endotoxin activity) for 30 min (37 °C, shaking) in order to promote the interaction between the two molecules. LPS alone was used as positive control. Following incubation, peptide-treated and untreated samples were mixed with the LAL reagent (1:1 ratio) and incubated for 10 min at 37 °C. Subsequently, 100 μL of the chromogenic substrate were added and incubated with the samples for 6 min. The reaction was terminated by adding 100 μL of acetic acid (25% v/v), and absorbance was measured at 405 nm ([…]) using a microplate reader (Multiscan FC, Life Technologies Italia, Monza, Italy). The amount of peptide-sequestered LPS was determined as follows: LPS neutralization (%) = [100 − (ODpeptide/ODpositive control × 100)].

[10] abbreviates: up to 19.25 μM (highest tested), 37 °C, 5% CO2, relative to cell lysis control, at least three independent experiments.

“LL-37: well-known human cathelicidin LL-37 (LLGDFFRKSKEKIGKEFKRIVQRIKDFLRNLVPRTES; Antibacterial peptide LL-37; UniProt P49913 134-170, looked up)”: the “protection from sepsis” value in data set [1] is reported as “protect from sepsis”. Moreover, the “LPS-induced pro-inflammatory responses” value in data set [2] is listed as “suppress LPS-induced pro-inflammatory responses”.

Turning to “KWKIRVRLSA-NH2 [lin-SB056-1, semi-synthetic peptide lin-SB056-1]”, the “cytotoxicity” value in data set [3] was “low cytotoxicity”. Besides, the “anti-microbial / anti-biofilm activity” value in data set [4] is on record as “effective against biofilms; also recorded: promising anti-microbial activity”. Besides, the “ED50 (Effective Displacement; peptide concentration displacing half of the BC)” value in [5] is around 1750 nM. Besides, the “cell death (LDH release), with LPS” value in data set [6] (setting [10]) and in data set [8] (setting [10]) was “less than 5%” throughout. The “toxicity” value in [6] (up to 19.25 μM, LDH release) is “no detectable toxicity”; in [8] (up to 19.25 μM, LDH release) it was “no detectable toxicity”. For the same substance, the “effect on IL-6 release” value in data set [7] is on record as “only a decrease in IL-8 levels was recorded”. The “effect on IL-8 release” value in data set [7] (lin-SB056-1 decrease at 19.25 μM (highest tested)) is reported as “decrease in IL-8 levels”. The “LPS neutralization / LAL activity” value in data set [9] is reported as “differently from lin-SB056-1”.
